The target of the first assay is T1, mGluR4 (Homo sapiens, UniProt Q14833).
T1 construct: expressed in transfected cells; host or cells: CHO cells (human mGluR4) or HEK cells (rat mGluR4 with GIRK)
T1 sequence (Q14833 33-912): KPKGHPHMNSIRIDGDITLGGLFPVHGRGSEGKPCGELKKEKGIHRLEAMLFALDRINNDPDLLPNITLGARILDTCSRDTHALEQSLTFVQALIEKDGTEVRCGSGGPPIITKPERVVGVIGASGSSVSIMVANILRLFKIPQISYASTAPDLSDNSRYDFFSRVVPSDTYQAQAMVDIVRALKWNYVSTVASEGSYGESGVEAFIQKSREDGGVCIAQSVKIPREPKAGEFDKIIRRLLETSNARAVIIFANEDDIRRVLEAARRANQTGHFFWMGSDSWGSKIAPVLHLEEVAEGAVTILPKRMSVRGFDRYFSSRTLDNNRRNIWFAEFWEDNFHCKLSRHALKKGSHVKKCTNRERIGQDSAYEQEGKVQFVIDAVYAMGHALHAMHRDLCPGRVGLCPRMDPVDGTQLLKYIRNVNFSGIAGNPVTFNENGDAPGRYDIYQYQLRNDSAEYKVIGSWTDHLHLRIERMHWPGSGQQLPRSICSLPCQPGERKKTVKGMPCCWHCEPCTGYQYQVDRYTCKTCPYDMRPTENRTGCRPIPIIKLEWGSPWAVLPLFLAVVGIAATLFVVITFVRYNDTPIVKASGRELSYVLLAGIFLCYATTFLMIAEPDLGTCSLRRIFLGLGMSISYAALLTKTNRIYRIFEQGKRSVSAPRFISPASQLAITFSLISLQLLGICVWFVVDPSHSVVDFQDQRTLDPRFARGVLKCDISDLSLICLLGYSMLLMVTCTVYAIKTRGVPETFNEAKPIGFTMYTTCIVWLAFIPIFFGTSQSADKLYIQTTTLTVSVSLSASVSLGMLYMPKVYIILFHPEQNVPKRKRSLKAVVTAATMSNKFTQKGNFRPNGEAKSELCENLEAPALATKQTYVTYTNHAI
Briefly: mGluR4 potentiation assay (fluorometric plate reader, compound then EC20 agonist); species for the tabulated values not stated. Type of assay: cell-based. Conditions: EC50 for potentiation of mGluR4; EC20 concentration of agonist. The procedure:
The disclosed compounds and compositions can be evaluated for their ability to act as a potentiator of metabotropic glutamate receptor activity, in particular mGluR4 activity, by any suitable known methodology known in the art. For example, Chinese Hamster Ovary (CHO) cells transfected with human mGluR4 or HEK cells co-transfected with rat mGluR4 and the G-protein regulated Inwardly Rectifying Potassium channel (GIRK) were plated in clear bottom assay plates for assay in a Hamamatsu FDSS Fluorometric Plate Reader. The cells were loaded with either a Ca2+-sensitive fluorescent dye or the thallium responsive dye and the plates were washed and placed into a suitable kinetic plate reader. For human mGluR4 assays, a fluorescence baseline was established for 3-5 seconds, the disclosed compounds were then added to the cells, and the response in cells was measured. Approximately two and a half minutes later, a concentration of mGluR4 orthosteric agonist (e.g. glutamate or L-AP4) eliciting approximately 20% (EC20) of the maximal agonist response was added to the cells, and the response was measured. Two minutes later, a concentration of mGluR4 agonist (e.g. glutamate or L-AP4) eliciting 80% (EC80) of the maximal agonist response was added to the cells, and the response was measured. For rat mGluR4/GIRK experiments, a baseline was established for approximately five seconds, disclosed compounds were added, and either an EC20 or EC80 concentration of agonist was added approximately two and one half minutes later. Potentiation of the agonist response of mGluR4 by the disclosed compounds was observed as an increase in response to the EC20 concentration of agonist in the presence of compound compared to the response to agonist in the absence of compound. Similarly, antagonism of the agonist response of mGluR4 by the disclosed compounds was observed as a decrease in response to the EC80 concentration of agonist in the presence of compound compared to the response to agonist in the absence of compound.
The above described assay operated in two modes. In the first mode, a range of concentrations of the disclosed compounds are added to cells, followed by a single fixed concentration of agonist. If the compound acts as a potentiatior, an EC50 value for potentiation and a maximum extent of potentiation by the compound at this concentration of agonist is determined by non-linear curve fitting. If the compound acts as a noncompetitive antagonist, an IC50 value is determined by non-linear curve fitting. In the second mode, several fixed concentrations of the disclosed compounds are added to various wells on a plate, followed by a range in concentrations of agonist for each concentration of disclosed compound. The EC50 values for the agonist at each concentration of compound are determined by non-linear curve fitting. A decrease in the EC50 value of the agonist with increasing concentrations of the sample compound (a leftward shift of the agonist concentration-response curve) is an indication of the degree of mGluR4 potentiation at a given concentration of the sample compound. A decrease in the maximal response of the agonist with increasing concentrations of the sample compounds, with or without a rightward shift in agonist potency, is an indication of the degree of noncompetitive antagonism at mGluR4. The second mode also indicates whether the sample compounds also affect the maximum response to mGluR4 to agonists.
Regarding `Clc1cccc(Nc2noc3cccnc23)c1` [Example 1, N-(3-chlorophenyl)isoxazolo[4,5-b]pyridin-3-amine], the EC50 was 209 nM.
Turning to `FC(F)Oc1cccc(Nc2noc3cccnc23)c1` [Example 2, N-(3-(difluoromethoxy)phenyl)isoxazolo[4,5-b]pyridin-3-amine], the 50% effective concentration (EC50) worked out at 364 nM.
For the compound `Fc1ccc(Nc2noc3cccnc23)cc1Cl` [Example 3, N-(3-chloro-4-fluorophenyl)isoxazolo[4,5-b]pyridin-3-amine], the EC50 was 893 nM.
Same read-out and setting: in the case of `Clc1ccc(Nc2noc3cccnc23)cc1Cl` [Example 4, N-(3,4-dichlorophenyl)isoxazolo[4,5-b]pyridin-3-amine] it was 4610 nM; in that of `COc1ccc(Nc2noc3cccnc23)cc1Cl` [Example 5, N-(3-chloro-4-methoxyphenyl)isoxazolo[4,5-b]pyridin-3-amine], 78.8 nM; in that of `FC(F)(F)c1cccc(Nc2noc3cccnc23)c1` [Example 6, N-(3-(trifluoromethyl)phenyl)isoxazolo[4,5-b]pyridin-3-amine], 434 nM.
For the compound `COc1cc(Nc2noc3cccnc23)ccc1Cl` [Example 7, N-(4-chloro-3-methoxyphenyl)isoxazolo[4,5-b]pyridin-3-amine], the EC50 was determined as 2100 nM.
The same measure, in the same setting: the result for `COc1ccc(Nc2noc3cccnc23)cc1OC` [Example 8, N-(3,4-dimethoxyphenyl)isoxazolo[4,5-b]pyridin-3-amine] reads 4340 nM; that for `Fc1cccc(Nc2noc3cccnc23)c1` [Example 9, N-(3-fluorophenyl)isoxazolo[4,5-b]pyridine-3-amine], 651 nM.

The assay is the same for the next values; noted with them: EC50 for potentiation of mGluR4; unit inferred, exponent notation.
In the case of `O=S(=O)(Cc1ccccc1Cl)n1ccc(Nc2noc3cccnc23)c1` [Example 16, N-(1-((2-chlorobenzyl)sulfonyl)-1H-pyrrol-3-yl)isoxazolo[4,5-b]pyridin-3-amine], the EC50 came to 89.2 nM.
Regarding `c1ccc(Nc2noc3cccnc23)cc1` [Example 17, N-phenylisoxazolo[4,5-b]pyridin-3-amine], the EC50 was 2030 nM.
Same read-out and setting: in the case of `FC(F)(F)Oc1cccc(Nc2noc3cccnc23)c1` [Example 18, N-(3-(trifluoromethoxy)phenyl)isoxazolo[4,5-b]pyridin-3-amine] it was 1170 nM.
For `c1cnc2c(Nc3ccc4c(c3)OCO4)noc2c1` [Example 19, N-(benzo[d][1,3]dioxol-5-yl)isoxazolo[4,5-b]pyridin-3-amine], the EC50 amounted to 1000 nM.
As to `Cc1cc(Nc2noc3cccnc23)ccc1Cl` [Example 20, N-(4-chloro-3-methylphenyl)isoxazolo[4,5-b]pyridin-3-amine], the concentration giving a half-maximal response (EC50) was determined as 590 nM.
Same read-out and setting: the result for `CC(=O)c1cccc(Nc2noc3cccnc23)c1` [Example 22, l-(3-(isoxazolo[4,5-b]pyridin-3-ylamino)phenyl)ethanone] reads 3660 nM; that for `Fc1ccc(Nc2noc3cccnc23)cc1F` [Example 23, N-(3,4-difluorophenyl)isoxazolo[4,5-b]pyridin-3-amine], 338 nM; that for `COc1cc(Nc2noc3cccnc23)ccc1F` [Example 24, N-(4-fluoro-3-methoxyphenyl)isoxazolo[4,5-b]pyridin-3-amine], 468 nM.
Regarding `FC(F)C(F)(F)Oc1cccc(Nc2noc3cccnc23)c1` [Example 26], the EC50 was 4040 nM.
Same read-out and setting: in the case of `Fc1ccc2onc(Nc3cccc(Cl)c3)c2n1` [Example 27, N-(3-chlorophenyl)-5-fluoroisoxazolo[4,5-b]pyridin-3-amine] it was 153 nM; in that of `Clc1cccc(Nc2noc3ccccc23)c1` [Example 30, N-(3-chlorophenyl)benzo[d]isoxazol-3-amine], 1140 nM.
On to `Fc1cccc(Nc2noc3ccccc23)c1` [Example 31, N-(3-fluorophenyl)benzo[d]isoxazol-3-amine], for which the half-maximal effective concentration (EC50) was 4090 nM.
Turning to `COc1ccc(Nc2noc3ccccc23)cc1Cl` [Example 33, N-(3-chloro-4-methoxyphenyl)benzo[d]isoxazol-3-amine], the concentration giving a half-maximal response (EC50) amounted to 7030 nM.

As usually defined, the EC50 is the concentration needed to bring the measured effect to its halfway point.

These data come from patent publication US8916584B2 (Vanderbilt University, priority 2010, dated 2014).
